Data published in patent publication US10131653B2, “Heterocyclic compound” (TAKEDA PHARMACEUTICAL COMPANY LIMITED, priority 2015, dated 2018).
Structures can show the parent of a compound that is named as a salt.

Columns and labels:
human OX1 receptor = target: T1, human OX1 receptor (Homo sapiens, UniProt O43613); assay: Measurement of orexin receptor antagonistic activity (calcium fluorescence, FLIPRtetra); assay type: cell-based; conditions: 10 μM test compound, CHO cells expressing human OX1 receptor, OX-A 1 nM; for inhibition at 10 µM: CHO, read-out: Human Orexin1 receptor inhibition (at 10 μM)
T1 construct: expressed in transfected cells; host or cells: CHO cells
T1 sequence (O43613 1-425): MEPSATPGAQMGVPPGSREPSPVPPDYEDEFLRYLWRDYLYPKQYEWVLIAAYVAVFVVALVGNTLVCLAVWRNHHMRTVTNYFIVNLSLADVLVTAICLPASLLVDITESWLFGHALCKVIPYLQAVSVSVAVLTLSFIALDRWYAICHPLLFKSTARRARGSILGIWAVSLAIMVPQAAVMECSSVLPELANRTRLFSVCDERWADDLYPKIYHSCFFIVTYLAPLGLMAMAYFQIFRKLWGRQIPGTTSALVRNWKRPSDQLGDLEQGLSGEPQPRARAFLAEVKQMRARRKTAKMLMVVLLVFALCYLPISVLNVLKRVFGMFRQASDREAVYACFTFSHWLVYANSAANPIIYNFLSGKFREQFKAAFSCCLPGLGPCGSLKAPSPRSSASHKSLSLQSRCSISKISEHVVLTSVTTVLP
Description: (§1) Measurement of Orexin Receptor Antagonistic Activity
(§2) CHO cells forcibly expressing human OX1 receptor or human OX2 receptor were seeded in each well of 384 well black transparent bottom plate (BD Falcon) at 7,500 cells/well, and cultured for one day in a 5% CO2 incubator at 37° C. […] The plate was stood for 30 min in a 5% CO2 incubator at 37° C., and further stood at room temperature for 30 min. A test compound prepared by diluting with assay buffer B (HBSS, 20 mM HEPES, 0.1% BSA) was added at 10 μL/well, and then OX-A (OX1 receptor, final concentration; 1 nM) or OX-A (OX2 receptor, final concentration; 0.3 nM) was added at 10 μL/well, and the fluorescence value was measured by FLIPRtetra (Molecular Devices) every one sec for 2 min.

human OX2 receptor = target: T2, human OX2 receptor (Homo sapiens, UniProt O43614); assay: as above; assay type: cell-based; conditions: 10 μM test compound, CHO cells expressing human OX2 receptor, OX-A 0.3 nM; for inhibition at 10 µM: CHO, read-out: Human Orexin2 receptor inhibition (at 10 μM)
T2 construct: expressed in transfected cells; host or cells: CHO cells
T2 sequence (O43614 1-444): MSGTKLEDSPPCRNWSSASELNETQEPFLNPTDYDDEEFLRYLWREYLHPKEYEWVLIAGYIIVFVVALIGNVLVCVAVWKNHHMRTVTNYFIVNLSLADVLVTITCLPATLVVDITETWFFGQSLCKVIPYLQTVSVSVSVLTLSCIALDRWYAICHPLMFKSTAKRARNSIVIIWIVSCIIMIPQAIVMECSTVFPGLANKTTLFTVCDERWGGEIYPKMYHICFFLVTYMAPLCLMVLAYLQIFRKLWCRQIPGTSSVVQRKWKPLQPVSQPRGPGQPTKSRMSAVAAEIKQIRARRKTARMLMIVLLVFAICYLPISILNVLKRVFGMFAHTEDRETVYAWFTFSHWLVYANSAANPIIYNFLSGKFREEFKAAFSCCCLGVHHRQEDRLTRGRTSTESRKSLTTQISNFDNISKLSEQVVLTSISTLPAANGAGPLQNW
Description: as §1, §2

Human Orexin1 receptor inhibition (at 10 μM) (human OX1 receptor) [%] | Human Orexin2 receptor inhibition (at 10 μM) (human OX2 receptor) [%] | inhibition at 10 µM (human OX1 receptor) [%] | inhibition at 10 µM (human OX2 receptor) [%] | Compound
16 | 99 | – | – | Cc1cc(N2CCN(C(=O)c3cc(Cl)ccc3-n3nccn3)CC(C)O2)nc(C)n1 (stereo in doubt) [Example 212, (5-chloro-2-(2H-1,2,3-triazol-2-yl)phenyl)((7R)-2-(2,6-dimethylpyrimidin-4-yl)-7-methyl-1,2,5-oxadiazepan-5-yl)methanone]
– | – | 87 | 100 | Cc1nc(N2CCN(C(=O)c3cc(Cl)ccc3-n3nccn3)C[C@H](C)O2)cc(C(F)(F)F)n1 [Example 3, (5-chloro-2-(2H-1,2,3-triazol-2-yl)phenyl)((7S)-7-methyl-2-(2-methyl-6-(trifluoromethyl)pyrimidin-4-yl)-1,2,5-oxadiazepan-5-yl)methanone]
– | – | 62 | 96 | Cc1ccc(-n2nccn2)c(C(=O)N2CCON(c3cc(C)nc(C)n3)CC2)c1 [Example 4, (2-(2,6-dimethylpyrimidin-4-yl)-1,2,5-oxadiazepan-5-yl)(5-methyl-2-(2H-1,2,3-triazol-2-yl)phenyl)methanone]
– | – | 101 | 99 | Cc1cc(N2C[C@H](C)N(C(=O)c3ccccc3-c3nccs3)[C@H](C)CO2)nc(C)n1 [Example 5, ((4S,6R)-2-(2,6-dimethylpyrimidin-4-yl)-4,6-dimethyl-1,2,5-oxadiazepan-5-yl)(2-(1,3-thiazol-2-yl)phenyl)methanone]
– | – | 88 | 96 | Cc1ccc(-n2nccn2)c(C(=O)N2CCN(c3cc(C)nc(C)n3)OC[C@H]2C)c1 [Example 6, ((6R)-2-(2,6-dimethylpyrimidin-4-yl)-6-methyl-1,2,5-oxadiazepan-5-yl)(5-methyl-2-(2H-1,2,3-triazol-2-yl)phenyl)methanone]
– | – | 91 | 74 | Cc1ccc(-n2nccn2)c(C(=O)N2CCON(c3ncc(C(F)(F)F)cn3)CC2)c1 [Example 9]
– | – | 93 | 94 | Cc1ccc(-n2nccn2)c(C(=O)N2CCON(c3ncc(C4CC4)cn3)CC2)c1 [Example 10, (2-(5-cyclopropylpyrimidin-2-yl)-1,2,5-oxadiazepan-5-yl)(5-methyl-2-(2H-1,2,3-triazol-2-yl)phenyl)methanone]
– | – | 101 | 93 | Cc1ccc(-n2nccn2)c(C(=O)N2CCON(c3nc(C)cc(-c4ccc(F)cc4)n3)CC2)c1 [Example 12, (2-(4-(4-fluorophenyl)-6-methylpyrimidin-2-yl)-1,2,5-oxadiazepan-5-yl)(5-methyl-2-(2H-1,2,3-triazol-2-yl)phenyl)methanone]
– | – | 23 | 91 | Cc1cc(N2CCN(C(=O)c3cc(F)ccc3-n3nccn3)CCO2)nc(C)n1 [Example 14, (2-(2,6-dimethylpyrimidin-4-yl)-1,2,5-oxadiazepan-5-yl)(5-fluoro-2-(2H-1,2,3-triazol-2-yl)phenyl)methanone]
– | – | 5 | 102 | Cc1cc(N2CCN(C(=O)c3cc(F)c(F)cc3-n3nccn3)CCO2)nc(C)n1 [Example 15, (4,5-difluoro-2-(2H-1,2,3-triazol-2-yl)phenyl) (2-(2,6-dimethylpyrimidin-4-yl)-1,2,5-oxadiazepan-5-yl)methanone]
– | – | 21 | 98 | Cc1cc(N2CCN(C(=O)c3c(F)cccc3-n3nccn3)CCO2)nc(C)n1 [Example 16, (2-(2,6-dimethylpyrimidin-4-yl)-1,2,5-oxadiazepan-5-yl) (2-fluoro-6-(2H-1,2,3-triazol-2-yl)phenyl)methanone hydrochloride]
– | – | 41 | 102 | Cc1cc(N2CCN(C(=O)c3ccccc3-c3ncc(F)s3)CCO2)nc(C)n1 [Example 17, (2-(2,6-dimethylpyrimidin-4-yl)-1,2,5-oxadiazepan-5-yl) (2-(5-fluoro-1,3-thiazol-2-yl)phenyl)methanone]
– | – | 36 | 100 | Cc1cc(N2CCN(C(=O)c3ccccc3-c3csc(C)n3)CCO2)nc(C)n1 [Example 19, (2-(2,6-dimethylpyrimidin-4-yl)-1,2,5-oxadiazepan-5-yl) (2-(2-methyl-1,3-thiazol-4-yl)phenyl)methanone]
– | – | 25 | 101 | Cc1cc(N2CCN(C(=O)c3ccccc3-n3nccn3)CCO2)nc(C)n1 [Example 20, (2-(2,6-dimethylpyrimidin-4-yl)-1,2,5-oxadiazepan-5-yl) (2-(2H-1,2,3-triazol-2-yl)phenyl)methanone]
– | – | 19 | 99 | Cc1cc(N2CCN(C(=O)c3ccccc3C3CCC3)CCO2)nc(C)n1 [Example 21, (2-cyclobutylphenyl) (2-(2,6-dimethylpyrimidin-4-yl)-1,2,5-oxadiazepan-5-yl)methanone]
– | – | 54 | 99 | Cc1cc(N2CCN(C(=O)c3cc(Cl)ccc3C3CCC3)CCO2)nc(C)n1 [Example 22, (5-chloro-2-cyclobutylphenyl) (2-(2,6-dimethylpyrimidin-4-yl)-1,2,5-oxadiazepan-5-yl)methanone]
– | – | 88 | 101 | Cc1cc(N2CCN(C(=O)c3ccccc3-c3cccs3)CCO2)nc(C)n1 [Example 23, (2-(2,6-dimethylpyrimidin-4-yl)-1,2,5-oxadiazepan-5-yl) (2-(2-thienyl)phenyl)methanone hydrochloride]
– | – | 13 | 99 | Cc1cc(N2CCN(C(=O)c3ccccc3-c3nc(C)no3)CCO2)nc(C)n1 [Example 24, (2-(2,6-dimethyl-pyrimidin-4-yl)-1,2,5-oxadiazepan-5-yl) (2-(3-methyl-1,2,4-oxadiazol-5-yl)phenyl) methanone]
– | – | 61 | 98 | Cc1cc(N2CCN(C(=O)c3cc(Cl)ccc3-n3nccn3)CCO2)nc(C)n1 [Example 25, (5-chloro-2-(2H-1,2,3-triazol-2-yl)phenyl) (2-(2,6-dimethyl-pyrimidin-4-yl)-1,2,5-oxadiazepan-5-yl)methanone]
– | – | 83 | 100 | Cc1cc(N2CCN(C(=O)c3cc(Br)ccc3-n3nccn3)CCO2)nc(C)n1 [Example 26, (5-bromo-2-(2H-1,2,3-triazol-2-yl)phenyl) (2-(2,6-dimethyl-pyrimidin-4-yl)-1,2,5-oxadiazepan-5-yl)methanone]
– | – | 45 | 102 | Cc1cc(N2CCN(C(=O)c3cc(F)ccc3-c3ncccn3)CCO2)nc(C)n1 [Example 27, (2-(2,6-dimethyl-pyrimidin-4-yl)-1,2,5-oxadiazepan-5-yl) (5-fluoro-2-(pyrimidin-2-yl)phenyl) methanone]
– | – | 23 | 74 | Cc1cc(N2CCN(C(=O)c3cc(F)ccc3-n3cccn3)CCO2)nc(C)n1 [Example 28, (2-(2,6-dimethyl-pyrimidin-4-yl)-1,2,5-oxadiazepan-5-yl) (5-fluoro-2-(1H-pyrazol-1-yl)phenyl) methanone]
– | – | – | 4 | Cc1cc(C)nc(N2CCN(C(=O)c3ccc(Cl)cc3)CCO2)n1 [Example 40, (4-chlorophenyl)(2-(4,6-dimethylpyrimidin-2-yl)-1,2,5-oxadiazepan-5-yl)methanone]
